Source: patent US9284333B2, “Fused pyrroledicarboxamides and their use as pharmaceuticals” (SANOFI, priority 2012, dated 2016)

Target: Human TASK-1 channels (Homo sapiens (Human), UniProt O14649)
Test: Determination of the activity on the TASK-1 channel in Xenopus oocytes (two-microelectrode voltage clamp)
Type: cell-based
Settings: for IC50: human TASK-1 expressed in Xenopus oocytes, room temperature, read-out: IC50 value for TASK-1 inhibition; for inhibition at 5 µM: compound concentration 5 μM
Procedure, shortened: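 Xenopus oocytes were injected with human TASK-1 cRNA and recorded two days later by two-microelectrode voltage clamp, holding at −90 mV with 500 ms steps to 40 mV. Superfusion used ND96, pH 7.4, at room temperature, with rising compound concentrations; percentage inhibition of control current was fitted to a dose-response curve for IC50.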

Human TASK-1 channels, sequence (O14649 whole entry): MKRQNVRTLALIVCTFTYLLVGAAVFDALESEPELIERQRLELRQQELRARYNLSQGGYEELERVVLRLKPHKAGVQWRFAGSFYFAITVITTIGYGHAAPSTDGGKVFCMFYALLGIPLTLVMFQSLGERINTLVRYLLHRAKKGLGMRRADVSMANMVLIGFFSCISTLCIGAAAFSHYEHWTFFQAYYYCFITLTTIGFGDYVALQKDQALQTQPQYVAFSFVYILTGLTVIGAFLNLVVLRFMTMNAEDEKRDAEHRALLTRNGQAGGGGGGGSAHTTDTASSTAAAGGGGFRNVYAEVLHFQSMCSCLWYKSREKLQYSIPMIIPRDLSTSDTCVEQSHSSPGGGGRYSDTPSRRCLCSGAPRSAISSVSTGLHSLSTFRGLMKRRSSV

SMILES	IC50 [nM]	inhibition at 5 µM [%]
CC[C@@H](NC(=O)c1cc(C(=O)N2CCC[C@@H]2C)n2c1CCCC2)c1ccc2c(c1)COC2=O [16lz, 3-((S)-2-Methyl-pyrrolidine-1-carbonyl)-5,6,7,8-tetrahydro-indolizine-1-carboxylic acid [(R)-1-(1-oxo-1,3-dihydro-isobenzofuran-5-yl)-propyl]-amide]	–	76
CC[C@@H](NC(=O)c1cc(C(=O)N[C@H](CC)c2cncc(C(F)(F)F)c2)n2c1COCC2)c1ccccc1 [16hn, 3,4-Dihydro-1H-pyrrolo[2,1-c][1,4]oxazine-6,8-dicarboxylic acid 8-[((R)-1-phenyl-propyl)-amide] 6-{[(R)-1-(5-trifluoromethyl-pyridin-3-yl)-propyl]-amide}]	690	–
CC[C@@H](NC(=O)c1cc(C(=O)N2CCC[C@@H]2C)n2c1COCC2)c1ccc(OC)cc1 [16at, 6-((S)-2-Methyl-pyrrolidine-1-carbonyl)-3,4-dihydro-1H-pyrrolo[2,1-c][1,4]oxazine-8-carboxylic acid [(R)-1-(4-methoxy-phenyl)-propyl]-amide]	400	–
CC[C@@H](NC(=O)c1cc(C(=O)N[C@H](CC)c2cccc(S(C)(=O)=O)c2)n2c1COCC2)c1ccccc1 [16jh, 3,4-Dihydro-1H-pyrrolo[2,1-c][1,4]oxazine-6,8-dicarboxylic acid 6-{[(R)-1-(3-methanesulfonyl-phenyl)-propyl]-amide}-8-[((R)-1-phenyl-propyl)-amide]]	780	–
CC[C@H](NC(=O)c1cc(C(=O)N2CCC[C@@H]2C)n2c1COCC2)c1ccc(F)c(C(F)(F)F)c1 [16bp]	–	90
CC[C@@H](NC(=O)c1cc(C(=O)NC(C)c2ccno2)n2c1COCC2)c1ccccc1 (stereo partly drawn) [16hh, 3,4-Dihydro-1H-pyrrolo[2,1-c][1,4]oxazine-6,8-dicarboxylic acid 6-[(1-isoxazol-5-yl-ethyl)-amide] 8-[((R)-1-phenyl-propyl)-amide]]	1000	–
CC[C@@H](NC(=O)c1cc(C(=O)N2CCC[C@@H]2c2cnccn2)c2n1CCOC2)c1ccc(F)cc1F [16pj, 8-((R)-2-Pyrazin-2-yl-pyrrolidine-1-carbonyl)-3,4-dihydro-1H-pyrrolo[2,1-c][1,4]oxazine-6-carboxylic acid [(R)-1-(2,4-difluoro-phenyl)-propyl]-amide]	1100	–

More lines, in order of falling IC50, values ahead:

IC50 [nM]	inhibition at 5 µM [%]	SMILES
250	–	CC[C@@H](NC(=O)c1cc(C(=O)NCc2cccc(C#N)c2)n2c1COCC2)c1ccccc1 [16gs, 3,4-Dihydro-1H-pyrrolo[2,1-c][1,4]oxazine-6,8-dicarboxylic acid 6-(3-cyano-benzylamide) 8-[((R)-1-phenyl-propyl)-amide]]
130	–	CC[C@@H](NC(=O)c1cc(C(=O)NC2CCCCC2)n2c1CCCC2)c1ccccc1 [16ml, 5,6,7,8-Tetrahydro-indolizine-1,3-dicarboxylic acid 3-cyclohexylamide 1-[((R)-1-phenyl-propyl)-amide]]
87	–	CC[C@@H](NC(=O)c1cc(C(=O)N[C@H](C)c2ccc(F)cc2)c2n1CCS2)c1ccccc1 [16ku, 2,3-Dihydro-pyrrolo[2,1-b]thiazole-5,7-dicarboxylic acid 7-{[(R)-1-(4-fluoro-phenyl)-ethyl]-amide} 5-[((R)-1-phenyl-propyl)-amide]]
42	–	CC[C@@H](NC(=O)c1cc(C(=O)N[C@H](C)c2ccc(F)cc2)n2c1COCC2)c1ccccc1 [16gl, 3,4-Dihydro-1H-pyrrolo[2,1-c][1,4]oxazine-6,8-dicarboxylic acid 6-{[(R)-1-(4-fluoro-phenyl)-ethyl]-amide} 8-[((R)-1-phenyl-propyl)-amide]]
25	–	CC[C@H]1CCCN1C(=O)c1cc(C(=O)N[C@H](CC)c2ccccc2)c2n1CCOC2 (racemic) [16fc, 6-((S)-2-Ethyl-pyrrolidine-1-carbonyl)-3,4-dihydro-1H-pyrrolo[2,1-c][1,4]oxazine-8-carboxylic acid ((R)-1-phenyl-propyl)-amide]
